We go through 18 compounds from patent US20230024283A1, “HERBICIDAL COMPOUNDS” (SYNGENTA CROP PROTECTION AG, priority 2020, published 2023).

Holding throughout (test): Post-emergence herbicidal glasshouse test
What all share (assay type): in vivo
What all share (details): post-emergence spray, 1000 g/ha, evaluated after 13 days, five-point scale

In experiment [1] the test system is Echinochloa crus-galli (ECHCG). As to the method: (§1) Seeds of a variety of test species are sown in standard soil in pots (Ipomoea hederacea (IPOHE), Abutilon theophrasti (ABUTH), Amaranthus retoflexus (AMARE), Echinochloa crus-galli (ECHCG), Setaria faberi (SETFA)). After 8 days cultivation under controlled conditions in a glasshouse (at 24/16° C., day/night; 14 hours light; 65% humidity), the plants are sprayed with an aqueous spray solution derived from the formulation of the technical active ingredient in acetone / water (50:50) solution containing 0.5% Tween 20 (polyoxyethelyene sorbitan monolaurate, CAS RN 9005-64-5). Compounds are applied at 1000 g/ha unless otherwise stated. The test plants are then grown in a glasshouse under controlled conditions in a glasshouse (at 24/16° C., day/night; 14 hours light; 65% humidity) and watered twice daily. After 13 days the test is evaluated for the percentage damage caused to the plant. The biological activities are shown in the following table on a five-point scale (5=81-100%; 4=61-80%; 3=41-60%; 2=21-40%; 1=0-20%).

Experiment [2] deals with Abutilon theophrasti (ABUTH). The protocol:
as §1

Experiment [3] relates to Amaranthus retoflexus (AMARE). The protocol:
as §1

In experiment [4] the test system is Ipomoea hederacea (IPOHE). As to the method: as §1
The test system of experiment [5] is Setaria faberi (SETFA). The protocol:
as §1

For `N#Cc1cc(Br)c(O)c(-c2cccc(C(F)(F)F)c2)c1` [Compound 1.060], the “percentage damage caused to the plant, ECHCG” value in experiment [1] is listed as 1 (1=0-20%). Also, in experiment [2], the “percentage damage caused to the plant, ABUTH” value is on record as 4 (4=61-80%). Besides, the “percentage damage caused to the plant, AMARE” value in experiment [3] is listed as 5 (5=81-100%). For the same compound, the “percentage damage caused to the plant, IPOHE” value in experiment [4] was 2 (2=21-40%). In addition, in experiment [5], the “percentage damage caused to the plant, SETFA” value is 1 (1=0-20%).
With `N#Cc1cc(-c2cc(F)c(F)c(F)c2)c(O)c(C(F)(F)F)c1` [Compound 1.182], the “percentage damage caused to the plant, ECHCG” value in experiment [1] is given as 1 (1=0-20%). The “percentage damage caused to the plant, ABUTH” value in experiment [2] is given as 4 (4=61-80%). In experiment [3], the “percentage damage caused to the plant, AMARE” value is recorded as 5 (5=81-100%). Further, in experiment [4], the “percentage damage caused to the plant, IPOHE” value is 5 (5=81-100%). Besides, the “percentage damage caused to the plant, SETFA” value in experiment [5] is 1 (1=0-20%).
For the compound `N#Cc1cc(-n2cc(F)cn2)c(O)c(C(F)(F)F)c1` [Compound 1.186], the “percentage damage caused to the plant, ECHCG” value in experiment [1] is on record as 1 (1=0-20%). Further, the “percentage damage caused to the plant, ABUTH” value in experiment [2] is listed as 5 (5=81-100%). Also, in experiment [3], the “percentage damage caused to the plant, AMARE” value is 2 (2=21-40%). Besides, the “percentage damage caused to the plant, IPOHE” value in experiment [4] was 4 (4=61-80%). In addition, the “percentage damage caused to the plant, SETFA” value in experiment [5] is 1 (1=0-20%).
For the compound `N#Cc1cc(Cl)c(O)c(-c2cccc(F)c2)c1` [Compound 1.004], the “percentage damage caused to the plant, ECHCG” value in experiment [1] is listed as 3 (3=41-60%). The “percentage damage caused to the plant, ABUTH” value in experiment [2] was 5 (5=81-100%). In addition, the “percentage damage caused to the plant, AMARE” value in experiment [3] is listed as 5 (5=81-100%). In addition, the “percentage damage caused to the plant, IPOHE” value in experiment [4] is listed as 1 (1=0-20%). Moreover, the “percentage damage caused to the plant, SETFA” value in experiment [5] is 3 (3=41-60%).
As to `N#Cc1cc(-c2cccc(F)c2)c(O)c([N+](=O)[O-])c1` [Compound 1.191], in experiment [1], the “percentage damage caused to the plant, ECHCG” value was 2 (2=21-40%). The “percentage damage caused to the plant, ABUTH” value in experiment [2] was 4 (4=61-80%). Also, the “percentage damage caused to the plant, AMARE” value in experiment [3] is 5 (5=81-100%). Further, in experiment [4], the “percentage damage caused to the plant, IPOHE” value is reported as 3 (3=41-60%). Further, the “percentage damage caused to the plant, SETFA” value in experiment [5] is 2 (2=21-40%).
Regarding `N#Cc1cc(-n2cc(Cl)c(C3CC3)n2)c(O)c(C(F)(F)F)c1` [Compound 1.259], in experiment [1], the “percentage damage caused to the plant, ECHCG” value was 2 (2=21-40%). Besides, in experiment [2], the “percentage damage caused to the plant, ABUTH” value is on record as 3 (3=41-60%). Also, in experiment [3], the “percentage damage caused to the plant, AMARE” value is recorded as 5 (5=81-100%). The “percentage damage caused to the plant, IPOHE” value in experiment [4] is 5 (5=81-100%). The “percentage damage caused to the plant, SETFA” value in experiment [5] is recorded as 2 (2=21-40%).
Consider `N#Cc1cc(Br)c(O)c(-c2cccc(F)c2)c1` [Compound 1.046, 3-bromo-5-(3-fluorophenyl)-4-hydroxy-benzonitrile], for which, in experiment [1], the “percentage damage caused to the plant, ECHCG” value is 2 (2=21-40%). The “percentage damage caused to the plant, ABUTH” value in experiment [2] was 5 (5=81-100%). In addition, in experiment [3], the “percentage damage caused to the plant, AMARE” value was 5 (5=81-100%). For the same compound, the “percentage damage caused to the plant, IPOHE” value in experiment [4] is given as 3 (3=41-60%). The “percentage damage caused to the plant, SETFA” value in experiment [5] was 3 (3=41-60%).
With `N#Cc1cc(Br)c(O)c(-c2cncc(F)c2)c1` [Compound 1.052], the “percentage damage caused to the plant, ECHCG” value in experiment [1] is recorded as 1 (1=0-20%). Further, the “percentage damage caused to the plant, ABUTH” value in experiment [2] was 5 (5=81-100%). The “percentage damage caused to the plant, AMARE” value in experiment [3] was 5 (5=81-100%). The “percentage damage caused to the plant, IPOHE” value in experiment [4] is recorded as 1 (1=0-20%). For the same compound, the “percentage damage caused to the plant, SETFA” value in experiment [5] is given as 3 (3=41-60%).
On to `N#Cc1cc(-c2cccc(OC(F)(F)F)c2)c(O)c(C(F)(F)F)c1` [Compound 1.165], for which, in experiment [1], the “percentage damage caused to the plant, ECHCG” value is on record as 1 (1=0-20%). Besides, the “percentage damage caused to the plant, ABUTH” value in experiment [2] is 1 (1=0-20%). For the same compound, the “percentage damage caused to the plant, AMARE” value in experiment [3] was 3 (3=41-60%). Besides, the “percentage damage caused to the plant, IPOHE” value in experiment [4] is listed as 4 (4=61-80%). Moreover, in experiment [5], the “percentage damage caused to the plant, SETFA” value is 1 (1=0-20%).
As for `N#Cc1cc(Br)c(O)c(-c2cncnc2)c1` [Compound 1.044], the “percentage damage caused to the plant, ECHCG” value in experiment [1] is reported as 2 (2=21-40%). The “percentage damage caused to the plant, ABUTH” value in experiment [2] is listed as 5 (5=81-100%). Further, in experiment [3], the “percentage damage caused to the plant, AMARE” value is listed as 5 (5=81-100%). Also, in experiment [4], the “percentage damage caused to the plant, IPOHE” value is reported as 1 (1=0-20%). The “percentage damage caused to the plant, SETFA” value in experiment [5] was 3 (3=41-60%).
Take `N#Cc1cc(Br)c(O)c(-c2cccc(Cl)c2F)c1` [Compound 1.045]: the “percentage damage caused to the plant, ECHCG” value in experiment [1] was 1 (1=0-20%). Besides, the “percentage damage caused to the plant, ABUTH” value in experiment [2] is 3 (3=41-60%). Besides, the “percentage damage caused to the plant, AMARE” value in experiment [3] is recorded as 5 (5=81-100%). The “percentage damage caused to the plant, IPOHE” value in experiment [4] was 1 (1=0-20%). Moreover, the “percentage damage caused to the plant, SETFA” value in experiment [5] was 1 (1=0-20%).
On to `N#Cc1cc(Br)c(O)c(-c2ccsc2)c1` [Compound 1.135], for which the “percentage damage caused to the plant, ECHCG” value in experiment [1] was 1 (1=0-20%). Also, in experiment [2], the “percentage damage caused to the plant, ABUTH” value was 5 (5=81-100%). The “percentage damage caused to the plant, AMARE” value in experiment [3] was 2 (2=21-40%). For the same compound, in experiment [4], the “percentage damage caused to the plant, IPOHE” value is recorded as 5 (5=81-100%). Moreover, the “percentage damage caused to the plant, SETFA” value in experiment [5] is 1 (1=0-20%).
Take `Cc1cn(-c2cc(C#N)cc(C(F)(F)F)c2O)nc1C(F)(F)F` [Compound 1.187]: in experiment [1], the “percentage damage caused to the plant, ECHCG” value is listed as 1 (1=0-20%). The “percentage damage caused to the plant, ABUTH” value in experiment [2] was 1 (1=0-20%). In addition, the “percentage damage caused to the plant, AMARE” value in experiment [3] was 5 (5=81-100%). For the same compound, the “percentage damage caused to the plant, IPOHE” value in experiment [4] is on record as 1 (1=0-20%). In experiment [5], the “percentage damage caused to the plant, SETFA” value is 1 (1=0-20%).
Turning to `N#Cc1cc(Br)c(O)c(-c2ccc(F)c(F)c2)c1` [Compound 1.130], in experiment [1], the “percentage damage caused to the plant, ECHCG” value is given as 1 (1=0-20%). In addition, in experiment [2], the “percentage damage caused to the plant, ABUTH” value is 5 (5=81-100%). The “percentage damage caused to the plant, AMARE” value in experiment [3] is listed as 5 (5=81-100%). Besides, the “percentage damage caused to the plant, IPOHE” value in experiment [4] is given as 2 (2=21-40%). In addition, the “percentage damage caused to the plant, SETFA” value in experiment [5] is recorded as 1 (1=0-20%).
Consider `N#Cc1cc(Br)c(O)c(-c2cccs2)c1` [Compound 1.134], for which the “percentage damage caused to the plant, ECHCG” value in experiment [1] is given as 1 (1=0-20%). Besides, the “percentage damage caused to the plant, ABUTH” value in experiment [2] was 4 (4=61-80%). Moreover, in experiment [3], the “percentage damage caused to the plant, AMARE” value was 4 (4=61-80%). Moreover, in experiment [4], the “percentage damage caused to the plant, IPOHE” value is 4 (4=61-80%). Further, the “percentage damage caused to the plant, SETFA” value in experiment [5] is 1 (1=0-20%).
Turning to `N#Cc1cc(-c2ccc(OC(F)(F)F)cc2)c(O)c(C(F)(F)F)c1` [Compound 1.151], the “percentage damage caused to the plant, ECHCG” value in experiment [1] is recorded as 1 (1=0-20%). In addition, in experiment [2], the “percentage damage caused to the plant, ABUTH” value is 1 (1=0-20%). In experiment [3], the “percentage damage caused to the plant, AMARE” value is recorded as 5 (5=81-100%). For the same compound, in experiment [4], the “percentage damage caused to the plant, IPOHE” value was 3 (3=41-60%). Moreover, in experiment [5], the “percentage damage caused to the plant, SETFA” value was 1 (1=0-20%).
In the case of `N#Cc1cc(-c2cc(F)cc(F)c2)c(O)c(C(F)(F)F)c1` [Compound 1.183], the “percentage damage caused to the plant, ECHCG” value in experiment [1] was 2 (2=21-40%). Moreover, in experiment [2], the “percentage damage caused to the plant, ABUTH” value was 4 (4=61-80%). Moreover, the “percentage damage caused to the plant, AMARE” value in experiment [3] is 5 (5=81-100%). Further, the “percentage damage caused to the plant, IPOHE” value in experiment [4] is 2 (2=21-40%). Further, the “percentage damage caused to the plant, SETFA” value in experiment [5] is given as 2 (2=21-40%).
For the compound `N#Cc1cc(Br)c(O)c(-c2ccc(C(F)(F)F)cc2)c1` [Compound 1.058], the “percentage damage caused to the plant, ECHCG” value in experiment [1] is given as 2 (2=21-40%). Besides, the “percentage damage caused to the plant, ABUTH” value in experiment [2] was 1 (1=0-20%). The “percentage damage caused to the plant, AMARE” value in experiment [3] is 5 (5=81-100%). The “percentage damage caused to the plant, IPOHE” value in experiment [4] is given as 2 (2=21-40%). In addition, the “percentage damage caused to the plant, SETFA” value in experiment [5] is listed as 3 (3=41-60%).
